Counter-ions that a name gives are not always drawn.
Experiment: Preservation stability of the crystal at 40° C/75% RH for 6 months (water content by Karl-Fischer, content by HPLC)
Format: physicochemical
Conditions: for content (%) (converted into dehydrated form): HPLC method; for water content (%): Karl-Fischer method
Protocol: A crystal of 3-[5-(4-carbamimidoyl-2-fluorophenoxy)carbonyl-2-thienyl]-2,2-dimethylpropanoic acid hydrochloride obtained by the method of Example 3 was preserved for 6 months under 40° C/75% RH conditions. […] Therefore, the crystalline form is useful as a crystalline form of a drug substance for pharmaceutical products.
The water content was measured by the Karl-Fischer method, and the content was measured by the HPLC method using a column charged with octadecylsilyl silica gel for liquid chromatography.

Q: Which results are given for `CC(C)(Cc1ccc(C(=O)Oc2ccc(C(=N)N)cc2F)s1)C(=O)O` [Example 3, 3-[5-(4-carbamimidoyl-2-fluorophenoxy)carbonyl-2-thienyl]-2,2-dimethylpropanoic acid hydrochloride]?
A: content (%) (converted into dehydrated form) (6 months at 40° C/75% RH): 99.5%; water content (%) (6 months at 40° C/75% RH): 0.1%; preservation stability of the crystal (40° C./75% RH for 6 months): stable; content (%) (converted into dehydrated form) (start): 99.5%; water content (%) (start): 0.1%
